Measured values taken from PMC9322761, “Design, Synthesis and Biological Characterization of Histone Deacetylase 8 (HDAC8) Proteolysis Targeting Chimeras (PROTACs) with Anti-Neuroblastoma Activity” (International Journal of Molecular Sciences, 2022).

Key:
[1] = system: SK-N-BE(2)-C cells; experiment: Colony formation assay in neuroblastoma cells; assay type: cell-based, human; conditions: 5 and 10 μM, treatment 96 h, then 6 days without treatment
Experimental: In order to measure the functional consequence of HDAC8 inhibition, two different cell lines were used: SK-N-BE(2)-C cells, which display MYCN amplification and non-functional p53; and IMR-32 cells having p53 wild type, which both respond with growth arrest and signs of neuronal differentiation upon knockdown or selective inhibition of HDAC8. Growth arrest was determined by colony formation and viability assays. Cells were treated with 5 and 10 μM of each of the CRBN_ based HDAC8 PROTACs having a triazole linker (CRBN_1d, CRBN_1e, CRBN_1f) for 96 h, followed by culturing for another 6 days without treatment (Figure 5A). This assesses whether the treatment impairs the clonogenic growth capacity of tumor cells, indicating effectiveness of compounds on the survival and proliferation of tumor cells.
In six-well plates, 500 cells were seeded and treated as indicated. Viable colonies were stained after a minimum of 10 days with crystal violet. For quantification, the mean intensity of each well of the 8-bit binary picture was measured with ImageJ software (U. S. National Institutes of Health, Bethesda, MD, USA; http://imagej.nih.gov/ij/ (accessed on 1 March 2022)).
(§1) Figure 5 (A) Neuroblastoma SK-N-BE(2)-C cells; Colony Assay, 10 days (compound treatment within first 96 h). Stained with crystal violet and quantified with ImageJ. (B,C) Trypan Blue assay for detection of dead cells. Neuroblastoma IMR-32 cells were either treated with 5 µM (B) or 10 µM (C). (D,E) Cell proliferation assessed via counting of viable cells. IMR-32 cells were either treated with 5 µM (D) or 10 µM (E) PROTACs. HDAC8i PCI-34501 served as a positive control, untreated (MEM) and solvent (DMSO) treated cells served as negative controls.

[2] = system: IMR-32 cells; experiment: Cell viability / proliferation (trypan blue, viable cell count) in neuroblastoma cells; assay type: cell-based, human; conditions: 5 and 10 µM
Experimental: Moreover, we treated neuroblastoma IMR-32 cells with the remaining PROTACs and counted the resulting viable cells. We quantified the percentage of dead cells as shown in (Figure 5B,C). In addition, cell proliferation was assessed via counting of viable cells (Figure 5D,E). […] As reference, the HDAC8 inhibitor PCI-34501 was used.
Adherent cells were detached using trypsin–EDTA (ThermoFisher Scientific, Bremen, Germany) and pooled with corresponding supernatant, centrifuged, and resuspended in 1 mL of cell culture medium. Cell viability (viable cell number, % viability, % dead cells) was measured by automated trypan blue staining using the Vi-Cell XR Cell Viability Analyzer (Beckman Coulter, Krefeld, Germany).
as §1

[3] = target: HDAC1 (Homo sapiens, UniProt Q13547); experiment: HDAC1 degradation in SK-N-BE(2)-C cells (Western blot); conditions: 6 h, up to 10 µM
Sequence of HDAC1 (Q13547 whole entry): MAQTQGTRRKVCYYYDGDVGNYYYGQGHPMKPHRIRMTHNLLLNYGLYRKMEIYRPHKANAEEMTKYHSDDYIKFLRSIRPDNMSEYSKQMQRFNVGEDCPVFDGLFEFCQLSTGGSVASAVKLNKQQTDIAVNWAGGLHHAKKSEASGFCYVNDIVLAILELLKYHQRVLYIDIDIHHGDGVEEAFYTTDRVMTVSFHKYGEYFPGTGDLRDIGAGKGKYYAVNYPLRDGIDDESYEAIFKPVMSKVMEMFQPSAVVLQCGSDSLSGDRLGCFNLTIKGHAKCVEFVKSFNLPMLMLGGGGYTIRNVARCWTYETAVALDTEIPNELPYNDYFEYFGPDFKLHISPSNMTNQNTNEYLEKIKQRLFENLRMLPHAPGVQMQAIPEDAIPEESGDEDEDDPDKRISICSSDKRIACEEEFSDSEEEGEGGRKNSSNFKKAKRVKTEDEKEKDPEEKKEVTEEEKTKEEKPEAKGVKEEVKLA
Experimental: Total HDAC6, total HDAC1, total HDAC8, and acetyl-histone H4 expression levels, were assessed by Western blot. Total GAPDH protein levels served as a loading control (LC). * unspecific bands obtained through reprobing of the membrane.

[4] = target: T1, HDAC6 (Homo sapiens, UniProt Q9UBN7); experiment: HDAC6 degradation in SK-N-BE(2)-C cells (Western blot); conditions: 6 h, up to 10 µM
T1 sequence (Q9UBN7 1-1215): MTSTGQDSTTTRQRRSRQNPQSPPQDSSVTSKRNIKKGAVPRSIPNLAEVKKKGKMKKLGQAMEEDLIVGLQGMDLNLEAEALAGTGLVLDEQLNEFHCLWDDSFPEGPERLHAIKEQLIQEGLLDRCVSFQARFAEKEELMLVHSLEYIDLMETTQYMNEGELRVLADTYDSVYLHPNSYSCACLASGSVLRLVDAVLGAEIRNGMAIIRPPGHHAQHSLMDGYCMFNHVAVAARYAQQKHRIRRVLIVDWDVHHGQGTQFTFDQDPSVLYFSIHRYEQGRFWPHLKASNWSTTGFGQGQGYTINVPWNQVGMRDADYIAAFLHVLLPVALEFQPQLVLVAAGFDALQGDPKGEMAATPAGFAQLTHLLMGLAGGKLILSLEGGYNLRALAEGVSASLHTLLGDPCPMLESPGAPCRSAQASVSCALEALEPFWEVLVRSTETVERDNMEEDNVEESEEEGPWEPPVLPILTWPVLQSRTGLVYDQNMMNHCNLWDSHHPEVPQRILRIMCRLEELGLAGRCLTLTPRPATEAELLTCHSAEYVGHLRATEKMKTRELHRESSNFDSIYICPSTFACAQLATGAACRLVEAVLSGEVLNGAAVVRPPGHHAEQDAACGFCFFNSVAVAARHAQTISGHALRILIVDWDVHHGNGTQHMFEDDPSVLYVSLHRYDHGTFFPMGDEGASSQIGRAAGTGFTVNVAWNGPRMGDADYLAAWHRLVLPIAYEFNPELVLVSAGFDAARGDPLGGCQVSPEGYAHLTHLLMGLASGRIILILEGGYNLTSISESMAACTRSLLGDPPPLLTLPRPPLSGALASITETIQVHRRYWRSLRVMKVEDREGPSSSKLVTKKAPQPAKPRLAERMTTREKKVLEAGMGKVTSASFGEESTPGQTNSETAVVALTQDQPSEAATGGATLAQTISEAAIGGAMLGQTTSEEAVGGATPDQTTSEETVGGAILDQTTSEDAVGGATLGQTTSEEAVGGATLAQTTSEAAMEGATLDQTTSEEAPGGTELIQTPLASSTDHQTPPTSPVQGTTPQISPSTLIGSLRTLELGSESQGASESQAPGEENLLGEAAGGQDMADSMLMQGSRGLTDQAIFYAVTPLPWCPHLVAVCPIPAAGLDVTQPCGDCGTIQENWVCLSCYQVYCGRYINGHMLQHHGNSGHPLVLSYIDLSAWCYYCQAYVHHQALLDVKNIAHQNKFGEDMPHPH
Experimental: Figure 6 (A) SK-N-BE(2)-C neuroblastoma cells were treated for indicated time points with 10 µM of PROTACs. Degradation of HDAC8 and acetylation of HDAC8 target was analyzed via Western blot. […] Acetylation of HDAC8 target SMC3 and HDAC6 target tubulin, as well as total HDAC8 levels, were assessed by Western blot. Quantified ac-SMC3 or ac-tubulin expression, respectively, was normalized to the respective tubulin loading control and to the solvent control (DMSO). This quantification is reflected by the numbers below each blot. […] Total HDAC6, total HDAC1, total HDAC8, and acetyl-histone H4 expression levels, were assessed by Western blot. Total GAPDH protein levels served as a loading control (LC). * unspecific bands obtained through reprobing of the membrane.
HDAC6 degradation and tubulin hyperacetylation by PROTACs and control compounds
Left: SK-N-BE(2)-C neuroblastoma cells were treated for 6 h with indicated PROTACs (10 µM
each). Total HDAC6, acetyl-tubulin and total tubulin (LC #1: loading control #1) expression levels,
were assessed by western blot. Total GAPDH protein levels served as a second loading control
(LC #2). Right: presentation of quantified acetyl-tubulin levels, normalized to the DMSO control

SMILES	Effect on colony formation [1]	Effect in cell proliferation assay (viable cell count) [2]	HDAC1 degradation [3]	HDAC6 degradation [4]
COC(=O)c1ccc(C)c(NCc2ccc(OCc3cn(CCCCCC(=O)Nc4cccc5c4C(=O)N(C4CCC(=O)NC4=O)C5=O)nn3)cc2)c1 (stereo not shown) [33a]	inactive	–	–	–
COc1ccc(C(=O)NO)cc1NC(=O)c1ccc(NC(=O)CCCCCCCNc2cccc3c2C(=O)N(C2CCC(=O)NC2=O)C3=O)cc1 (stereo not shown) [CRBN_1b]	significantly decreased the ability to form colonies	strongest effect	do not degrade	do not degrade
O=C(COc1ccc(CNc2cc(C(=O)NO)ccc2Cl)cc1)NCCCCCNC(=O)CC12CC3CC(CC(C3)C1)C2 [HyT_1p]	significantly decreased the ability to form colonies	strongest effect	–	–
